PubChem BioAssay (NCI)
“And” between values parts separate entries of the source, which are not always exact repeats. Equal entries are not always repeated.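 Compound exposure: 48 hours, 5 concentrations, 96-well plates. At the GI50, growth is halved. At the TGI there is no net growth.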 *1 amine or outer side, *2 acyl side, *3 side chain or, on linkers, in order; H or OH if unused. Where a SMILES comes first, the peptide text is derived from it. Bridges are numbered along the chain shown (N, C = ends). [ ]: non-standard residue; d: D form. X35 = CC[C@H](C)[C@@H](N[*:1])[C@@H](O)CC(=O)O[C@H](C(=O)[C@H](C)C(=O)[*:2])C(C)C; NMeY = CN[C@@H](Cc1ccc(O)cc1)C(=O)O

Legend:
Test in all cases: NCI tumour cell line growth inhibition, 48 h
CCRF-CEM leukemia = system: CCRF-CEM leukemia
HCT-15 colon = system: HCT-15 colon
NCI-H226 lung = system: NCI-H226 lung
A549 NSCLC = system: A549 NSCLC
SK-MEL-2 melanoma = system: SK-MEL-2 melanoma
T-47D breast = system: T-47D breast

Compound | TGI (CCRF-CEM leukemia) [µM] | TGI (HCT-15 colon) [µM] | TGI (NCI-H226 lung) [µM] | TGI (A549 NSCLC) [µM] | TGI (SK-MEL-2 melanoma) | TGI (T-47D breast) [µM] | GI50 (SK-MEL-2 melanoma)
C[C@@H]1S[C@H](c2c(F)cccc2Cl)n2c1nc1ccccc12 | 42.6 | 19.3 | 37 | 61.3 | 29.3 µM | 79.5 | –
CN(C)c1ccc(C=Nc2ccc(-c3nc4ccccc4s3)cc2)cc1 | 10.9 | > 100 | > 100 | > 100 | 58.9 µM | 73.9 | –
C=C(C)C1CC[C@@](C)(O)[C@H](C#N)C1 (stereo partly specified) | > 100 | > 100 | > 100 | > 100 | > 100 µM | > 100 | –
O=C1Nc2ccc(Br)cc2/C1=N/S(=O)(=O)O | 35.6 | > 100 | > 100 | 78.9 | 22.4 µM | > 100 | –
Cn1nnc2c(C(N)=S)ncn2c1=O | > 100 | > 100 | > 100 | > 100 | > 100 µM | > 100 | –
CCCCN=NNc1cn(C2OC(CO)C(O)C2O)c(=O)[nH]c1=O (stereo unspecified) | > 100 | > 100 | > 100 | > 100 | > 100 µM | > 100 | –
CC[C@H](C)[C@@H]([C@@H](CC(=O)N1CCC[C@H]1[C@H](OC)[C@@H](C)C(=O)NCCc1ccccc1)OC)N(C)C(=O)C(NC(=O)[C@H](C(C)C)N(C)C)C(C)C (stereo partly specified) | – | > 10 | 0.00784 | 1.1 | – | > 10 | –
C=C1CC[C@@H]2C13[C@@H]1[C@H](CC(=O)[C@@]23C)C1(C)C (stereo partly specified) | – | > 100 | > 100 | > 100 | > 100 µM | > 100 | –
COCn1cc(C2=C(C)C(=O)C(C)=C(C)C2=O)cn1 | 60.8 | > 100 | > 100 | > 100 | > 100 µM | 56.1 | –
CC(=O)OCC1(C)C(O)CCC2(C)C1CCC1CC3CC12CCC3(O)CO (stereo unspecified) | > 100 | > 100 | > 100 | > 100 | > 100 µM | > 100 | –
COc1ccc(N2C(=O)C(Cl)C2c2cc3cc(Br)ccc3nc2Cl)cc1 (stereo unspecified) | 14.7 | 11 | 13.2 | > 25 | 11.1 µM | > 25 | –
CCc1n[nH]c(=O)n1CC | > 100 | > 100 | > 100 | > 100 | > 100 µM | > 100 | –
CC(=O)OCC1OC(n2c(C)c(C(C)=O)c(-c3ccco3)c(C#N)c2=S)C(OC(C)=O)C(OC(C)=O)C1OC(C)=O (stereo unspecified) | > 100 | > 100 | > 100 | > 100 | 98.4 µM and > 100 µM | > 100 | 27.4 µM and 74.4 µM
C/C(O)=C(\C=N\C(=S)N=Nc1c(O)[nH]c2ccccc12)C(=O)Nc1ccccc1C | – | > 100 | > 100 | > 100 | > 100 µM | > 100 | –
CCO/C(O)=C(/C(=N)N1CCOCC1)C(=O)NC(C)C | > 100 | > 100 | > 100 | > 100 | > 100 µM | > 100 | –
CC[C@H](C)[C@H]1NC(=O)[C@@H](N)[C@@H](C)OC(=O)[C@H](Cc2ccc(OC)cc2)N(C)C(=O)[C@@H]2CCCN2C(=O)[C@H](CC(C)C)NC(=O)[C@@H](C)C(=O)[C@H](C(C)C)OC(=O)C[C@@H]1O (H-T[X35]LP[NMeY](Me); ester 1-C) | > 100 | > 100 | > 100 | > 100 | > 100 µM | – | –
C=C1CN=C(Nc2ccc(Cl)cc2)S1 | > 100 | > 100 | – | > 100 | > 100 µM | > 100 | –
CCN(CC)C1Oc2cc3c(cc2C(c2cc(OC)c(O)c(OC)c2)C1C)OCO3 (stereo unspecified) | 42.1 | > 38.6 | 52.3 | 60 | > 95.7 µM | > 73.4 | –
CC1(C)CC[C@]2(C(=O)O)CC[C@]3(C)C(=CCC4=C5C[C@H](O)[C@H](O)[C@@](C)(CO)[C@@]5(C)CC[C@]43C)[C@@H]2C1 | > 100 | > 100 | – | > 100 | > 100 µM | 89.5 | –
CC(=O)Nc1cc(Cl)cc(Cl)c1O | > 100 | > 100 | > 100 | > 100 | > 100 µM | > 100 | –
CCOC(=O)c1ncn(CCc2ccc(Cl)cc2)c1C | > 100 | > 100 | > 100 | > 100 | > 100 µM | – | –
O=C(Sc1c(-c2ccccc2)c(=O)n(-c2ccccc2)c(=S)n1-c1ccccc1)c1ccccc1 | 76.3 | > 100 | > 100 | > 100 | > 100 µM | > 100 | –
CC(=O)NS(=O)(=O)c1ccc(NCc2cccc3c(=O)c4ccc(Cl)cc4oc23)cc1 | > 86.7 | > 55.4 | > 100 | > 100 | > 93.6 µM | > 100 | –
Cc1[nH]c(C)c(CN(C)C)c1CN(C)C | > 100 | > 100 | > 100 | > 100 | > 100 µM | > 100 | –
COc1ccccc1-n1nnc2c(N)nc(N)nc21 | > 100 | > 100 | > 100 | > 100 | > 100 µM | > 100 | –
C/C=C/c1cc2c(cc1O)CC[C@@H]1[C@@H]2CC[C@]2(C)[C@@H](O)CC[C@@H]12 | 8.44 | 18 | 1.96 | 15.9 | 16.7 µM | 41.7 | –
CCCCC(=O)/C=c1/cc(C)[nH]c2cccc3cnn1c32 | > 100 | > 100 | > 100 | > 100 | > 100 µM | > 100 | –
CN1CCC2(c3ccccc3)CC(=O)/C(=C/c3ccc(Cl)c(Cl)c3)C1C2 (stereo unspecified) | 5.15 | 4.59 | 4.69 | 10.9 | 9.87 µM | > 41.5 | –
C=C1N(S(=O)(=O)c2ccc(C)cc2)C(=O)OCC12CCCC2 | > 100 | > 100 | > 100 | > 100 | – | > 100 | –
